Laboratory results from the supplement of paper PMC10307832.

Tests used:
Assay in all cases: relative viability (nuclei count vs DMSO), 5 days (fraction); higher = more cells survive
[1] = compound: CC1CC(=O)N(C2=CN=C(N=C2N1C3CCCC3)NC4=C(C=C(C=C4)C(=O)NC5CCN(CC5)C)OC)C [NPK76-II-72-1] + Cc1nc(NC(=O)N2CCC[C@H]2C(N)=O)sc1-c1ccnc(C(C)(C)C(F)(F)F)c1 [Alpelisib] (partner 2 µM)
Method in brief: (§1)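 Five library-drug doses in √10 steps were combined with a fixed anchor-drug dose, or a single drug was given alone, by pin tool to lung cancer cell lines in 1536-well plates the day after seeding. Nuclei were stained and counted after 5 days. Relative viability is the nuclei count in treated wells over that in vehicle wells, taken as the median of duplicate plates.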

BI-2536 + Linsitinib = compound: CC[C@@H]1C(=O)N(C)c2cnc(Nc3ccc(C(=O)NC4CCN(C)CC4)cc3OC)nc2N1C1CCCC1 [BI-2536] + C[C@]1(O)C[C@@H](c2nc(-c3ccc4ccc(-c5ccccc5)nc4c3)c3c(N)nccn32)C1 [Linsitinib] (partner 1 µM)
Method in brief: as §1

BI-2536 + Bortezomib = compound: CC[C@@H]1C(=O)N(C)c2cnc(Nc3ccc(C(=O)NC4CCN(C)CC4)cc3OC)nc2N1C1CCCC1 [BI-2536] + CC(C)C[C@H](NC(=O)[C@H](Cc1ccccc1)NC(=O)c1cnccn1)B(O)O [Bortezomib] (partner 0.002 µM)
Method in brief: as §1

NPK76-II-72-1 + Olaparib = compound: CC1CC(=O)N(C2=CN=C(N=C2N1C3CCCC3)NC4=C(C=C(C=C4)C(=O)NC5CCN(CC5)C)OC)C [NPK76-II-72-1] + O=C(c1cc(Cc2n[nH]c(=O)c3ccccc23)ccc1F)N1CCN(C(=O)C2CC2)CC1 [Olaparib] (partner 8 µM)
Method in brief: as §1

| Cell Line | relative viability ([1]; first compound 0.01 µM) | relative viability ([1]; first compound 0.03162 µM) | relative viability ([1]; first compound 0.1 µM) | relative viability ([1]; first compound 0.3162 µM) | relative viability ([1]; first compound 1 µM) | relative viability (BI-2536 + Linsitinib; first compound 0.01 µM) | relative viability (BI-2536 + Linsitinib; first compound 0.03162 µM) | relative viability (BI-2536 + Linsitinib; first compound 0.1 µM) | relative viability (BI-2536 + Linsitinib; first compound 0.3162 µM) | relative viability (BI-2536 + Linsitinib; first compound 1 µM) | relative viability (BI-2536 + Bortezomib; first compound 0.01 µM) | relative viability (BI-2536 + Bortezomib; first compound 0.03162 µM) | relative viability (BI-2536 + Bortezomib; first compound 0.1 µM) | relative viability (BI-2536 + Bortezomib; first compound 0.3162 µM) | relative viability (BI-2536 + Bortezomib; first compound 1 µM) | relative viability (NPK76-II-72-1 + Olaparib; first compound 0.01 µM) | relative viability (NPK76-II-72-1 + Olaparib; first compound 0.03162 µM) | relative viability (NPK76-II-72-1 + Olaparib; first compound 0.1 µM) | relative viability (NPK76-II-72-1 + Olaparib; first compound 0.3162 µM) | relative viability (NPK76-II-72-1 + Olaparib; first compound 1 µM) |
| --- | --- | --- | --- | --- | --- | --- | --- | --- | --- | --- | --- | --- | --- | --- | --- | --- | --- | --- | --- | --- |
| NCI-H1993 | 0.706 | 0.65 | 0.62 | 0.655 | 0.664 | 0.709 | 0.637 | 0.579 | 0.528 | 0.611 | 1.2 | 1 | 0.536 | 0.696 | 0.646 | 0.96 | 1.05 | 1.24 | 1.07 | 1.29 |
| RERF-LC-KJ | 0.727 | 0.928 | 0.773 | 0.683 | 0.86 | 0.969 | 0.913 | 0.829 | 0.522 | 0.199 | 1.12 | 1.28 | 0.939 | 0.221 | 0.264 | 0.903 | 0.914 | 0.908 | 0.901 | 0.905 |
| NCI-H23 | 0.759 | 0.871 |  | 0.657 | 0.804 | 0.536 | 0.542 | 0.644 | 0.191 | 0.138 | 1.14 | 0.885 | 0.182 | 0.117 | 0.139 | 0.228 | 0.29 | 0.316 | 0.255 | 0.354 |
| HCC-366 | 0.401 | 0.443 | 0.456 | 0.435 | 0.452 | 0.648 | 0.739 | 0.535 | 0.0173 | 0.0162 | 1.09 | 1.1 | 0.155 | 0.0158 | 0.0163 | 0.328 | 0.374 | 0.469 | 0.39 | 0.366 |
| EMC-BAC-2 | 0.723 | 0.764 | 0.786 | 0.668 | 0.774 | 0.852 | 0.866 | 0.872 | 0.444 | 0.236 | 1.08 | 1.11 | 1.06 | 0.628 | 0.172 | 0.468 | 0.506 | 0.51 | 0.486 | 0.541 |
| NCI-H2405 | 0.654 | 0.853 | 0.753 | 0.744 | 0.921 | 0.903 | 0.855 | 0.745 | 0.225 | 0.468 | 0.829 | 1.04 | 0.588 | 0.632 | 0.723 | 0.861 | 0.888 | 0.908 | 0.858 | 0.88 |
| EPLC-272H | 0.854 | 0.88 | 0.964 | 0.928 | 0.88 | 1.12 | 1.15 |  | 0.143 | 0.0967 | 0.939 | 0.891 |  | 0.786 | 0.101 | 0.831 | 0.825 | 0.782 | 0.732 | 0.765 |
| EBC-1 | 0.927 | 0.931 | 0.828 | 0.836 | 0.906 | 0.966 | 0.797 | 0.863 | 0.172 | 0.154 | 0.477 | 0.46 | 0.222 | 0.217 | 0.175 | 0.697 | 0.734 | 0.712 | 0.7 | 0.812 |
